Some test systems named below: TK-10 renal; NCI-H460 lung; UACC-257 melanoma; M14 melanoma; SK-OV-3 ovarian; COLO 205 colon; U251 CNS; UACC-62 melanoma; SNB-75 CNS; HOP-92 NSCLC.
Holding throughout (test): NCI-60 cell line screen, 48 h

These results are taken from PubChem BioAssay (NCI).

Each structure is given as a SMILES string. Where “and” joins values, the source holds several entries; their conditions need not be identical. Equal values may be shown once.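 Assay format: 96-well plates, 48-hour exposure. Abbreviation: GI50, concentration required for 50% inhibition of growth. At the TGI there is no net growth.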

For `COc1ccc(-c2cc(/C=C3\C(=O)Nc4ccc(Cl)cc43)[nH]n2)cc1`, the GI50 in the assay on TK-10 renal is 8.8 µM; in the assay on NCI-H460 lung, 3.81 µM; with UACC-257 melanoma it was 8.78 µM; with M14 melanoma it was 4.02 µM; with SK-OV-3 ovarian, 4.07 µM; in the assay with COLO 205 colon it was 2.08 µM. Also, the values for the GI50 in the assay with U251 CNS, in the assay on UACC-62 melanoma and in the assay with SNB-75 CNS were 3.16 µM, 5.56 µM and 2.26 µM, respectively. Also, the TGI in the assay with TK-10 renal turned out to be 20.7 µM; in the assay with NCI-H460 lung, 13 µM; in the assay on UACC-257 melanoma, 21.4 µM; in the assay with M14 melanoma, 15.2 µM; in the assay on SK-OV-3 ovarian it was 13.8 µM; in the assay on COLO 205 colon, 4.7 µM. The TGI in the assay on U251 CNS was 12.1 µM; with UACC-62 melanoma it was 18.5 µM; in the assay on SNB-75 CNS, 8.49 µM.
Take `COc1ccc2c(c1OC)C1=C(C2=O)c2cc3c(cc2CCN1)OCO3`: the TGI in the assay on TK-10 renal was more than 100 µM; in the assay with NCI-H460 lung it was 92.7 µM; in the assay with HOP-92 NSCLC, more than 100 µM; with UACC-257 melanoma it was more than 100 µM; in the assay with M14 melanoma, more than 100 µM; in the assay on COLO 205 colon it was more than 100 µM. Moreover, the TGI with UACC-62 melanoma is more than 100 µM; in the assay with SNB-75 CNS, 5.9 µM.
Regarding `Cc1c(C(=O)c2ccccc2C(=O)O)c2ccccc2n1C`, the TGI in the assay on TK-10 renal, with NCI-H460 lung, in the assay on UACC-257 melanoma, in the assay with M14 melanoma, in the assay with SK-OV-3 ovarian and in the assay on U251 CNS was more than 100 µM each time. The TGI with UACC-62 melanoma and in the assay with SNB-75 CNS was more than 100 µM each time.
In the case of `CC1(C)OC(=O)C=C([O-])O1.CC1(C)OC(=O)C=C([O-])O1.O=S(=O)([O-])c1ccc([O-])c2ncccc12.O=S(=O)([O-])c1ccc([O-])c2ncccc12.[Ti+4]`, the GI50 was more than 100 µM with TK-10 renal; 41.8 µM in the assay with NCI-H460 lung; more than 100 µM in the assay on UACC-257 melanoma; 69.2 µM with M14 melanoma; more than 100 µM with SK-OV-3 ovarian; more than 100 µM with COLO 205 colon. Further, the GI50 in the assay on UACC-62 melanoma is 79.9 µM; in the assay with SNB-75 CNS, more than 100 µM. The TGI in the assay with TK-10 renal, in the assay on NCI-H460 lung, in the assay with UACC-257 melanoma, in the assay with M14 melanoma, with SK-OV-3 ovarian and in the assay on COLO 205 colon was more than 100 µM in each case. Besides, the TGI with UACC-62 melanoma and in the assay on SNB-75 CNS was more than 100 µM throughout.
Regarding `CN1c2ccccc2N(C)C2C1N(C)c1ccccc1N2C` (stereo unspecified), the TGI is more than 100 µM in the assay with TK-10 renal; more than 100 µM with NCI-H460 lung; 52.4 µM in the assay on HOP-92 NSCLC; more than 100 µM in the assay on UACC-257 melanoma; 65 µM in the assay on M14 melanoma; 29.4 µM with COLO 205 colon. For the same compound, the TGI in the assay on U251 CNS was more than 100 µM; with UACC-62 melanoma, 24.9 µM; in the assay with SNB-75 CNS it was 71.1 µM.
Regarding `CN(CN1C(=O)C2Cc3ccccc3CN2C1=O)c1ccccn1` (stereo unspecified), the TGI in the assay with TK-10 renal, in the assay with NCI-H460 lung, with M14 melanoma, with COLO 205 colon, in the assay with U251 CNS and in the assay with UACC-62 melanoma was more than 100 µM throughout.
On to `O=C(c1ccc2ncc(-c3nc(NC4CC4)ncc3F)n2c1)N1CCOCC1`, for which the GI50 in the assay with NCI-H460 lung was 2.91 µM; with HOP-92 NSCLC it was 1.93 µM; in the assay with UACC-257 melanoma, 2.71 µM; with M14 melanoma it was 1.9 µM; in the assay with U251 CNS, 2.46 µM; in the assay with UACC-62 melanoma, 1.54 µM. In the assay on SNB-75 CNS, the GI50 is 1.47 µM. Further, the TGI with NCI-H460 lung is more than 100 µM; with HOP-92 NSCLC it was 6.86 µM; in the assay with UACC-257 melanoma, 8.43 µM; in the assay on M14 melanoma it was 4.07 µM; with U251 CNS, more than 100 µM; in the assay on UACC-62 melanoma, 3.6 µM. Moreover, in the assay on SNB-75 CNS, the TGI was 3.58 µM.
Regarding `Nc1ccc(S(=O)(=O)C23CC4CC(CC(C4)C2)C3)cc1`, the TGI with TK-10 renal, in the assay on NCI-H460 lung, with UACC-257 melanoma, with M14 melanoma, in the assay with SK-OV-3 ovarian and with COLO 205 colon was more than 100 µM in each case. Besides, the TGI in the assay on U251 CNS and in the assay on UACC-62 melanoma was more than 100 µM in each case.
In the case of `COC1OC(CO)C(O)C(O)C1Br` (stereo unspecified), the TGI in the assay with TK-10 renal, with NCI-H460 lung, in the assay with HOP-92 NSCLC, with UACC-257 melanoma, in the assay with M14 melanoma and in the assay on COLO 205 colon was more than 100 µM throughout. In addition, the TGI in the assay on U251 CNS and in the assay with UACC-62 melanoma was more than 100 µM each time.
As for `COc1cccc(NC(=O)CC(=O)N2N=C(N(CCC#N)c3ccccc3C)CC2c2ccccc2)c1` (stereo unspecified), the TGI in the assay with NCI-H460 lung, in the assay on HOP-92 NSCLC, in the assay with UACC-257 melanoma, in the assay with M14 melanoma, with SK-OV-3 ovarian and in the assay with COLO 205 colon was more than 100 µM throughout. In addition, the TGI with U251 CNS, with UACC-62 melanoma and in the assay on SNB-75 CNS was more than 100 µM throughout.
Turning to `CN(C)CCCN1c2nc3ccccc3cc2Sc2cc3ccccc3nc21`, the GI50 in the assay on TK-10 renal was 1.65 µM; in the assay on NCI-H460 lung it was 1.6 µM; with HOP-92 NSCLC, 0.332 µM; in the assay on UACC-257 melanoma, 1.76 µM; with M14 melanoma, 1.69 µM; in the assay on SK-OV-3 ovarian, 1.59 µM. The GI50 is 1.24 µM in the assay with COLO 205 colon, 1.6 µM in the assay with U251 CNS and 1.46 µM with UACC-62 melanoma. Besides, the TGI was 3.1 µM in the assay with TK-10 renal; 3.13 µM in the assay with NCI-H460 lung; 1.42 µM in the assay on HOP-92 NSCLC; 3.53 µM in the assay on UACC-257 melanoma; 3.23 µM with M14 melanoma; 3.01 µM with SK-OV-3 ovarian. Also, the values for the TGI in the assay on COLO 205 colon, with U251 CNS and in the assay with UACC-62 melanoma were 2.82 µM, 3.08 µM and 2.8 µM, respectively.
For the compound `Cn1c(=O)nc2n(-c3cccc(F)c3)c3ccccc3nc-2c1=O`, the TGI in the assay with TK-10 renal is more than 100 µM; in the assay with NCI-H460 lung, 67.1 µM; in the assay with UACC-257 melanoma, 28.1 µM; in the assay with M14 melanoma, 67.1 µM; in the assay with SK-OV-3 ovarian, more than 100 µM; in the assay on COLO 205 colon it was 19 µM. For the same compound, the TGI with U251 CNS amounted to 48.9 µM; with UACC-62 melanoma, 13 µM; with SNB-75 CNS, 78.5 µM.
`COc1cc2c3c(c1)c1cc(OC)c(OC)cc1c[n+]3CC2`: the GI50 was more than 100 µM with TK-10 renal; 15.9 µM with UACC-257 melanoma; 63.8 µM with M14 melanoma; 89.5 µM in the assay with SK-OV-3 ovarian; 14.8 µM in the assay with COLO 205 colon; 1.28 µM in the assay with U251 CNS. Further, the GI50 in the assay with UACC-62 melanoma was 28.7 µM. Besides, the TGI in the assay on TK-10 renal is more than 100 µM; in the assay with NCI-H460 lung, 47.8 µM; in the assay with UACC-257 melanoma it was 50 µM and 64.7 µM; with M14 melanoma it was more than 100 µM; in the assay with SK-OV-3 ovarian it was more than 100 µM; with COLO 205 colon it was 50 µM and > 100 µM. The TGI was 50 µM and 25.9 µM in the assay with U251 CNS; 50 µM and > 100 µM with UACC-62 melanoma.
On to `CC(=O)OCCOCNC(=S)N/N=C(\C)c1cnc2ccccc2n1`, for which the TGI with TK-10 renal was more than 100 µM; in the assay with NCI-H460 lung it was more than 100 µM; with UACC-257 melanoma, more than 100 µM; with M14 melanoma it was more than 100 µM; in the assay on SK-OV-3 ovarian it was more than 100 µM; in the assay with COLO 205 colon, 36.9 µM. The values for the TGI in the assay on U251 CNS, in the assay with UACC-62 melanoma and in the assay with SNB-75 CNS were more than 100 µM, 39.7 µM and more than 100 µM, respectively.
Take `CCCCCC(=O)c1ccc2[nH]c3c(C)cc([N+](=O)[O-])c(C)c3c2c1`: the TGI in the assay with TK-10 renal, in the assay on NCI-H460 lung, in the assay with UACC-257 melanoma, in the assay on M14 melanoma, with COLO 205 colon and with SNB-75 CNS was more than 100 µM throughout.
On to `O=C(Nc1ccc(Cl)cc1)c1ccc(NC2=C(Cl)C(=O)N(Cc3ccccc3)C2=O)cc1`, for which the GI50 in the assay on NCI-H460 lung is 25.1 µM; in the assay with HOP-92 NSCLC, 9.19 µM; in the assay on UACC-257 melanoma, 22.2 µM; with M14 melanoma, 15.2 µM; with SK-OV-3 ovarian, 32.9 µM; in the assay on COLO 205 colon, 30.3 µM. Also, the GI50 in the assay on U251 CNS is 8.07 µM; in the assay on UACC-62 melanoma, 17.9 µM; in the assay on SNB-75 CNS, 20.1 µM. Besides, the TGI in the assay with NCI-H460 lung is more than 100 µM; in the assay with HOP-92 NSCLC, 25.1 µM; with UACC-257 melanoma, 63.5 µM; in the assay with M14 melanoma, 35.8 µM; in the assay on SK-OV-3 ovarian, more than 100 µM; in the assay with COLO 205 colon it was more than 100 µM. The TGI was 20.4 µM in the assay on U251 CNS, 44.3 µM in the assay with UACC-62 melanoma and 52.5 µM in the assay on SNB-75 CNS.
On to `O=S(=O)(NCC1CCC(CNc2ccc(Cl)cc2)CC1)c1ccc(-c2ccccc2)cc1` (stereo unspecified), for which the GI50 is 22.8 µM in the assay on TK-10 renal; 42.5 µM in the assay with NCI-H460 lung; 45.6 µM with HOP-92 NSCLC; more than 50 µM with UACC-257 melanoma; more than 50 µM in the assay on M14 melanoma; more than 50 µM in the assay with SK-OV-3 ovarian. Further, the GI50 in the assay with COLO 205 colon was more than 50 µM; in the assay on U251 CNS it was 23.5 µM; in the assay on UACC-62 melanoma, more than 50 µM. Further, the TGI with TK-10 renal, in the assay with NCI-H460 lung, with HOP-92 NSCLC, in the assay on UACC-257 melanoma, with M14 melanoma and with SK-OV-3 ovarian was more than 50 µM in each case. In addition, the TGI with COLO 205 colon, with U251 CNS and with UACC-62 melanoma was more than 50 µM each time.
Take `Nc1ccc2c(c1)NCCN2`: the TGI with TK-10 renal, in the assay with NCI-H460 lung, in the assay with HOP-92 NSCLC, in the assay on UACC-257 melanoma, with M14 melanoma and in the assay on COLO 205 colon was more than 100 µM each time. Moreover, the TGI in the assay on U251 CNS, in the assay on UACC-62 melanoma and in the assay with SNB-75 CNS was more than 100 µM throughout.
